Legend:
[1] = system: T. b. rhodesiense STIB900; assay: STIB900 acute mouse model of trypanosomiasis; format: in vivo; conditions: 5 mg/kg ip, 4 consecutive days
[2] = system: cultured L6 rat myoblast cells; assay: Cytotoxicity, Alamar Blue assay; format: cell-based; conditions: read-out: Cytotoxicity IC50
[3] = system: Poly d(A-T)n; assay: Thermal melting; format: binding; conditions: for Increase in ΔTm on replacing one furan ring with thiophene: compared with bifuran 1c
[4] = system: Plasmodium falciparum K1; assay: In vitro activity against P. falciparum; format: cell-based; conditions: read-out: P. falciparum IC50; strain K1; average of duplicate determination

Compound	Survival (average days of survival) [1]	Increase in ΔTm on replacing one furan ring with thiophene [3]	further results
Cl.N=C(N)c1ccc(-c2ccc(-c3ccc(C(=N)N)s3)s2)cc1 [Compound 1e, 5′-(4-Amidinophenyl)-2,2′-bithiophene-5-carboxamidine hydrochloride]	26.25 days		
6-(5′-Amidino-2,2′-bifuran-5-yl)-nicotinamidine acetate [Compound 1h]	25.5 days		IC50 [2]: 26.9 µM; ΔTm, increase in thermal melting of Poly d(A-T)n ([3]; ratio 0.3 mol compound per mole DNA, CAC 10 buffer pH 7.0): 6.0 °C; IC50 [4]: 0.0064 µM; Cures (mice that survive and are parasite free for 60 days) ([1]; groups of four mice): 0/4
Cl.N=C(N)c1ccc(-c2ccc(-c3ccc(C(=N)N)s3)o2)cc1 [Compound 1d, 5-[5-(4-Amidinophenyl)-furan-2-yl]-thiophene-2-carboxamidine hydrochloride]		approximately 5 °C	
Cl.N=C(N)c1ccc(-c2ccc(-c3ccc(C(=N)N)o3)s2)cc1 [Compound 1f, 5-[5-(4-Amidinophenyl)-thiophen-2-yl]-furan-2-carboxamidine hydrochloride]		approximately 5 °C	

Reference: PMC3064985 (Bioorganic & medicinal chemistry, 2010)
